Laboratory results as given in ChEMBL document CHEMBL3243923, “Linked Aryl Aryloxypropanolamines as a new class of lipid catabolis agents” (J Med Chem, 1978).
Activity calls are given as the source filed them. The calls are words filed in the database; no cut-off is given here.

What was measured:
Mus musculus [1] = assay: Antiobesity activity in mouse assessed as reduction in utero fat at 0.02% administered every day through diet for 10 days measured after day 10 relative to control; assay type: functional; design: scale not given: the % may be the effect or the level left
Mus musculus [2] = assay: Antiobesity activity in mouse assessed as reduction in utero fat at 0.04% administered every day through diet for 10 days measured after day 10 relative to control; assay type: functional; design: scale not given: the % may be the effect or the level left
Mus musculus [3] = assay: Toxicity in mouse assessed as liver hypertrophy at 1000 mg/kg, po administered for 21 days; assay type: organism-based; design: dose 1000 mg/kg, route oral; settings: in vivo, 504 h
Rattus norvegicus [4] = assay: Toxicity in rat assessed as increase in liver weight at 100 mg/kg, po qd administered for 5 days measured on day 6 relative to control; assay type: organism-based; design: dose 100 mg/kg, route oral; settings: in vivo, 120 h
Rattus norvegicus [5] = assay: Antiobesity activity in rat assessed as reduction in utero fat at 100 mg/kg, po qd administered for 5 days measured on day 6 relative to control; assay type: functional; design: scale not given: the % may be the effect or the level left
Rattus norvegicus [6] = assay: Antiobesity activity in rat assessed as reduction in body weight at 100 mg/kg, po qd administered for 5 days measured on day 6 relative to control; assay type: functional; design: scale not given: the % may be the effect or the level left
[7] = Therapeutic index, ratio of MNTD for chronic toxicity in po dosed mouse to ED25 for antiobesity activity in mouse assessed as reduction in utero fat; assay type: organism-based; settings: in vivo, read-out: TI
[8] = (§1) Chronic toxicity in po dosed mouse assessed as mortality administered as qd for 21 days; assay type: organism-based; settings: in vivo, read-out: MNTD
Mus musculus [9] = assay: Antiobesity activity in mouse assessed as reduction in utero fat administered every day through diet for 10 days measured after day 10; assay type: functional; settings: 240 h
Rattus norvegicus [10] = assay: Antiobesity activity in rat assessed as reduction in food intake at 100 mg/kg, po qd administered for 5 days measured every day for 5 days relative to control; assay type: functional; design: scale not given: the % may be the effect or the level left
Rattus norvegicus [11] = assay: Toxicity in rat assessed as increase in adrenal weight at 100 mg/kg, po qd administered for 5 days measured on day 6 relative to control; assay type: organism-based; design: dose 100 mg/kg, route oral; settings: in vivo, 120 h
Mus musculus [12] = assay: as §1; assay type: organism-based; settings: in vivo, 504 h
Mus musculus [13] = assay: Antiobesity activity in mouse assessed as reduction in utero fat at 0.01% administered every day through diet for 10 days measured after day 10 relative to control; assay type: functional; design: scale not given: the % may be the effect or the level left

SMILES | Activity (Mus musculus [2]) | other results
CC(C)NCC(O)COc1c(C(C)(C)C)cc(/C=C/c2ccc(O)cc2)cc1C(C)(C)C.O=C(O)/C=C\C(=O)O (centres undefined) | – | Activity (Mus musculus [1]): 20%
Cc1cc(/C=C/c2ccccc2)cc(C)c1OCC(O)CNC(C)C (centres undefined) | 31% | –
CCC(C)c1cc(/C=C/c2ccccc2)cc(C(C)CC)c1OCC(O)CNC(C)C (centres undefined) | inactive | –
CN(C)CCNCC(O)COc1c(C(C)(C)C)cc(/C=C/c2ccccc2)cc1C(C)(C)C (centres undefined) | inactive | –
CC(C)NCC(O)COc1c(C(C)(C)C)cc(-c2ccccc2)cc1C(C)(C)C.Cl (centres undefined) | 28% | Activity (Mus musculus [3]): Toxic; Activity (Rattus norvegicus [4]): 21%; Activity (Rattus norvegicus [5]): 28%; Activity (Rattus norvegicus [6]): 4%; selectivity ratio [7]: 5; MTD at 504 h [8]: 100 mg/kg; ED25 (Mus musculus [9]): 20 mg/kg; Activity (Rattus norvegicus [10]): 51%; Activity (Rattus norvegicus [11]): 16%
CC(C)NCC(O)COc1ccc(C#Cc2ccccc2)cc1 (centres undefined) | 28% | –
CCCCCCNCC(O)COc1c(C(C)(C)C)cc(/C=C/c2ccccc2)cc1C(C)(C)C (centres undefined) | inactive | –
CN(C)CCCNCC(O)COc1c(C(C)(C)C)cc(/C=C/c2ccccc2)cc1C(C)(C)C.Cl (centres undefined) | 45% | –
Cc1ccccc1/C=C/c1cc(C(C)(C)C)c(OCC(O)CNC(C)C)c(C(C)(C)C)c1 (centres undefined) | 42% | –
CC(C)NCC(O)COc1c(C(C)(C)C)cc([S+]([O-])c2ccc(Cl)cc2)cc1C(C)(C)C.O=C(O)/C=C\C(=O)O (centres undefined) | 23% | Activity (Mus musculus [3]): Non-toxic; MTD at 504 h [8]: 75 mg/kg; ED25 (Mus musculus [9]): 45 mg/kg
CCNCC(O)COc1c(C(C)(C)C)cc(/C=C/c2ccccc2)cc1C(C)(C)C (centres undefined) | 24% | –
CCC(C)NCC(O)COc1c(C(C)(C)C)cc(/C=C/c2ccccc2)cc1C(C)(C)C (centres undefined) | 23% | –
CC(C)(C)c1cc(/C=C/c2ccccc2)cc(C(C)(C)C)c1OCC(O)CNC1CCCCC1 (centres undefined) | 24% | –
CC(C)NCC(O)COc1c(C(C)(C)C)cc(/C=C/c2ccccc2)cc1C(C)(C)C (single isomer, unassigned; (+)) | inactive | –
CC(C)(C)c1cc(/C=C/c2ccccc2)cc(C(C)(C)C)c1OCC(O)CNCCNC(=O)Nc1ccccc1 (centres undefined) | inactive | –
CC(C)NCC(O)COc1c(C(C)(C)C)cc(/C=C/c2ccc(C(C)(C)C)cc2)cc1C(C)(C)C (centres undefined) | inactive | –
Cc1ccc(/C=C/c2cc(C(C)(C)C)c(OCC(O)CNC(C)C)c(C(C)(C)C)c2)cc1C (centres undefined) | inactive | –
CC(C)NCC(O)COc1c(C(C)(C)C)cc(/C=C/c2ccc(Cl)cc2)cc1C(C)(C)C (centres undefined) | 22% | Activity (Mus musculus [3]): Non-toxic; selectivity ratio [7]: 1; MTD at 504 h [8]: 100 mg/kg; ED25 (Mus musculus [9]): 100 mg/kg
CC(C)NCC(O)COc1c(C(C)(C)C)cc(-c2ccc(Cl)cc2)cc1C(C)(C)C (centres undefined) | 36% | Activity (Mus musculus [3]): Non-toxic; selectivity ratio [7]: 3.6; MTD at 504 h [8]: 100 mg/kg; ED25 (Mus musculus [9]): 30 mg/kg
CCCCN(CCCC)CCCNCC(O)COc1c(C(C)(C)C)cc(/C=C/c2ccccc2)cc1C(C)(C)C.O=C(O)/C=C\C(=O)O (centres undefined) | 25% | –
COc1ccc(/C=C/c2cc(C(C)(C)C)c(OCC(O)CNC(C)(C)C)c(C(C)(C)C)c2)cc1Br (centres undefined) | inactive | –
CC(C)NCC(O)COc1c(C(C)(C)C)cc([S+]([O-])c2ccccc2)cc1C(C)(C)C (centres undefined) | inactive | –
CC(C)NCC(O)COc1c(C(C)(C)C)cc(/C=C/c2ccc(Cl)c(Cl)c2)cc1C(C)(C)C (centres undefined) | inactive | –

SMILES | Activity (Mus musculus [2]) | other results
CC(C)CNCC(O)COc1c(C(C)(C)C)cc(/C=C/c2ccccc2)cc1C(C)(C)C (centres undefined) | inactive | –
CCCCNCC(O)COc1c(C(C)(C)C)cc(/C=C/c2ccccc2)cc1C(C)(C)C (centres undefined) | 25% | –
CC(C)NCC(O)COc1c(C(C)(C)C)cc(S(=O)(=O)c2ccc(Cl)cc2)cc1C(C)(C)C (centres undefined) | inactive | –
CC(C)NCC(O)COc1c(C2CCCCC2)cc(/C=C/c2ccccc2)cc1C1CCCCC1.O=C(O)/C=C\C(=O)O (centres undefined) | 27% | Activity (Mus musculus [3]): Non-toxic; MTD at 504 h [8]: 100 mg/kg; ED25 (Mus musculus [9]): 38 mg/kg
CC(C)NCC(O)COc1c(C(C)(C)C)cc(/C=C/c2ccccc2)cc1C(C)(C)C (centres undefined) [listing 1 of 2 here] | – | Activity (Mus musculus [1]): inactive
CC(C)(C)c1cc(/C=C/c2ccccc2)cc(C(C)(C)C)c1OCC(O)CNCc1ccccc1 (centres undefined) | inactive | –
CC(C)NCC(O)COc1c(C(C)(C)C)cc(CCc2ccccc2)cc1C(C)(C)C (centres undefined) | inactive | –
CC(C)NCC(O)COc1c(C(C)(C)C)cc(/C=C/c2ccc([N+](=O)[O-])cc2)cc1C(C)(C)C (centres undefined) | 45% | –
CCc1cc(/C=C/c2ccccc2F)cc(CC)c1OCC(O)CNC(C)C (centres undefined) | 37% | –
CC(C)NCC(O)COc1c(C(C)C)cc(/C=C/c2ccccc2)cc1C(C)C (centres undefined) | 20% | –
CC(C)NCC(O)COc1c(C(C)(C)C)cc(/C=C/c2ccc3ccccc3c2)cc1C(C)(C)C (centres undefined) | inactive | –
CNCC(O)COc1c(C(C)(C)C)cc(/C=C/c2ccccc2)cc1C(C)(C)C.O.O=C(O)C(=O)O (centres undefined) | 44% | –
CC(C)NCC(O)COc1c(C(C)(C)C)cc(S(=O)(=O)c2ccccc2)cc1C(C)(C)C (centres undefined) | inactive | –
Cc1ccc(/C=C/c2cc(C(C)(C)C)c(OCC(O)CNC(C)C)c(C(C)(C)C)c2)cc1 (centres undefined) | inactive | –
Cc1cc(/C=C/c2ccccc2)cc(C(C)(C)C)c1OCC(O)CNC(C)C (centres undefined) | inactive | –
CC(C)NCC(O)COc1ccc(/C=C/c2ccncc2)cc1 (centres undefined) | 24% | –
COc1ccc(-c2cc(C(C)(C)C)c(OCC(O)CNC(C)C)c(C(C)(C)C)c2)cc1 (centres undefined) | inactive | –
CC(C)NCC(O)COc1ccc(Sc2ccc(Cl)cc2)cc1 (centres undefined) | 22% | –
CC(C)(C)NCC(O)COc1c(C(C)(C)C)cc(/C=C/c2ccccc2)cc1C(C)(C)C (centres undefined) | 20% | –
CCc1cc(/C=C/c2ccccc2)cc(CC)c1OCC(O)CNC(C)C (centres undefined) | – | Activity (Mus musculus [3]): Non-toxic; Activity (Mus musculus [1]): 20%; selectivity ratio [7]: 1.7; MTD at 504 h [8]: 75 mg/kg; ED25 (Mus musculus [9]): 45 mg/kg
CC(C)NCC(O)COc1c(C(C)(C)C)cc(/C=C/c2ccc(F)cc2)cc1C(C)(C)C (centres undefined) | inactive | –
CCc1cc(/C=C/c2ccccc2C(F)(F)F)cc(CC)c1OCC(O)CNC(C)C (centres undefined) | 20% | –
CC(C)(C)c1cc(/C=C/c2ccccc2)cc(C(C)(C)C)c1OCC(O)CNCCO (centres undefined) | inactive | –

SMILES | Activity (Mus musculus [2]) | other results
CC(C)NCC(O)COc1ccc(-c2ccc(Cl)cc2)cc1.Cl (centres undefined) | 23% | Activity (Mus musculus [3]): Non-toxic; selectivity ratio [7]: 0.5; MTD at 504 h [8]: 25 mg/kg; ED25 (Mus musculus [9]): 50 mg/kg
CC(C)NCC(O)COc1c(C(C)(C)C)cc(Sc2ccc(Cl)cc2)cc1C(C)(C)C (centres undefined) | inactive | –
CC(C)NCC(O)COc1ccc(S(=O)(=O)c2ccc(Cl)cc2)cc1 (centres undefined) | inactive | –
COc1ccc(/C=C/c2cc(C(C)(C)C)c(OCC(O)CNC(C)C)c(C(C)(C)C)c2)cc1 (centres undefined) | – | Activity (Mus musculus [3]): Non-toxic; Activity (Mus musculus [1]): 26%; selectivity ratio [7]: 1.25; MTD at 504 h [8]: 25 mg/kg; ED25 (Mus musculus [9]): 20 mg/kg
CC(C)NCC(O)COc1c(C(C)(C)C)cc(/C=C/c2cccc3ccccc23)cc1C(C)(C)C (centres undefined) | inactive | –
CC(C)NCC(O)COc1c(C(C)(C)C)cc(C#Cc2ccccc2)cc1C(C)(C)C.O=C(O)/C=C\C(=O)O (centres undefined) | 25% | –
CC(C)NCC(O)COc1ccc(-c2ccccc2)cc1 (centres undefined) | 24% | –
CC(C)NCC(O)COc1c(C(C)(C)C)cc(Oc2ccccc2)cc1C(C)(C)C.O=C(O)/C=C\C(=O)O (centres undefined) | 20% | Activity (Mus musculus [3]): Non-toxic; MTD at 504 h [8]: 100 mg/kg; ED25 (Mus musculus [9]): 20 mg/kg
CC(C)NCC(O)COc1c(C(C)(C)C)cc(Sc2ccccc2)cc1C(C)(C)C (centres undefined) | inactive | –
COc1ccc(/C=C/c2cc(C(C)(C)C)c(OCC(O)CNC(C)C)c(C(C)(C)C)c2)cc1Br (centres undefined) | inactive | –
CC(C)(C)c1cc(/C=C/c2ccccc2)cc(C(C)(C)C)c1OCC(O)CNC1CC1 (centres undefined) | inactive | –
CCN(CC)CCCNCC(O)COc1c(C(C)(C)C)cc(/C=C/c2ccccc2)cc1C(C)(C)C (centres undefined) | inactive | –
CC(C)NCC(O)COc1c(C(C)(C)C)cc(/C=C/c2cccc(Cl)c2)cc1C(C)(C)C (centres undefined) | 21% | Activity (Mus musculus [3]): Non-toxic; selectivity ratio [7]: 1.4; MTD at 504 h [8]: 100 mg/kg; ED25 (Mus musculus [9]): 72 mg/kg
CCCNCC(O)COc1c(C(C)(C)C)cc(/C=C/c2ccccc2)cc1C(C)(C)C (centres undefined) | inactive | –
CC(C)NCC(O)COc1c(C(C)(C)C)cc(/C=C/c2ccc3c(c2)OCO3)cc1C(C)(C)C (centres undefined) | inactive | –
CC(C)NCC(O)COc1c(C(C)(C)C)cc(/C=C/c2ccccc2Cl)cc1C(C)(C)C (centres undefined) | inactive | –
CC(C)NCC(O)COc1ccc([S+]([O-])c2ccc(Cl)cc2)cc1 (centres undefined) | inactive | –
CC(C)NCC(O)COc1c(C(C)(C)C)cc(/C=C/c2ccc(Br)cc2)cc1C(C)(C)C (centres undefined) | – | Activity (Mus musculus [3]): Non-toxic; Activity (Mus musculus [1]): 31%; selectivity ratio [7]: 4.3; MTD at 504 h [8]: 150 mg/kg; ED25 (Mus musculus [9]): 34 mg/kg
CC(C)NCC(O)COc1c(C(C)(C)C)cc(/C=C/c2ccccc2)cc1C(C)(C)C (centres undefined) [listing 2 of 2 here] | 39% | –
CC(C)NCC(O)COc1c(C(C)(C)C)cc(Oc2ccc(Cl)cc2)cc1C(C)(C)C (centres undefined) | inactive | –
CC(C)NCC(O)COc1ccc(-c2cccs2)cc1 (centres undefined) | – | Activity (Mus musculus [12]): Toxic; Activity (Mus musculus [13]): 34%
